Reference: patent US9101161B2, “High-potency sweetener composition with phytoestrogen and compositions sweetened therewith” (The Coca-Cola Company, priority 2006, dated 2015)

What was measured:
[1] = Rate of dissolution in H2O at 25° C. of rebaudioside A polymorph and amorphous forms; format: physicochemical
[2] = Sensory evaluation of sweetness linger, Example Set G (REBA in citric acid/potassium citrate composition); format: in vivo; design: key: 0=no sweetness linger; 1=very slight sweetness linger; 2=slight sweetness linger; 3=moderate sweetness linger; 4=moderately high sweetness linger; 5 high sweetness linger; conditions: for sweetness linger: 400 ppm REBA in citric acid/potassium citrate composition equivalent to diet lemon-lime beverage, plus additive, expert panel, scale 0-5, sweetness 3-4 min after water rinse; for Sweetness Linger rating defined for controls: defined by the protocol, sucrose, 500 ppm REBA control sample
Procedure: Sensory evaluation of the samples prepared in Example Set G was carried out under the following protocol, similar to that described hereinabove. In this test protocol, none of the samples were swallowed. All samples were expectorated and the mouth was rinsed with water after the tasting, Immediately upon sensing maximal sweetness, the sample was expectorated, the mouth was rinsed with water and the rate of sweetness decay (“Sweetness Linger”) was measured, where attention was focused on the sweetness 3-4 min after the water rinse. After sample tasting was complete, a salty oyster cracker was chewed followed by a water rinse, and at least 5 minutes followed before tasting the next sample. The sweetness linger was rated by a panel of experts in the sensory evaluation of foods and beverages using the following scale: 0=no sweetness linger, 1=very slight sweetness linger, 2=slight sweetness linger, 3=moderate sweetness linger, 4=moderately high sweetness linger, 5 high sweetness linger.
The “Sweetness Linger” rating for sucrose observed by this protocol is defined as 0. The Sweetness Linger of a 500 ppm of REBA control sample is defined as 5. Experimental samples were tasted by the same protocol, always allowing sufficient time between samples to ensure re-equilibration of the sensory system. Re-tasting of control samples during the course of the experiment was allowed and encouraged.
The comparison taste test was performed between two controls and addition of sweet taste improving additive on the onset and/or sweetness linger.
The effects of formulation change on the sweetness linger of 400 ppm REBA (equivalent to 8 g sucrose) in a citric acid/potassium citrate composition equivalent to that in a diet lemon-lime beverage were evaluated. The sweetness linger rating of this solution was determined to be 5.
8 g of sugar was dissolved in 100 ml of citrate buffer. The sweetness linger rating of this control sample was determined to be 0.

[3] = Sweetness level as sucrose equivalent; conditions: 400 ppm REBA
[4] = Sensory evaluation of sweetness linger, Example Set H (REBA in phosphoric acid solution pH 2.4-2.5); format: in vivo; design: key: 0=no sweetness linger; 1=very slight sweetness linger; 2=slight sweetness linger; 3=moderate sweetness linger; 4=moderately high sweetness linger; 5 high sweetness linger; conditions: 500 ppm REBA (H41: 360 ppm) in carbon-treated water, phosphoric acid (75%) to pH 2.4-2.5, plus additive; scale 0-5
[5] = format: physicochemical
Procedure: A solution of rebaudioside A (>97% pure by HPLC) was prepared in double distilled water (12.5 gm in 50 mL, 25% concentration) by stirring the mixture at 40° C. for 5 minutes. An amorphous form of rebaudioside A was formed by immediately using the clear solution for spray drying with the Lab-Plant spray drier SD-04 instrument (Lab-Plant Ltd., West Yorkshire, U.K.). The solution was fed through the feed pump into the nozzle atomizer which atomized it into a spray of droplets with the help of a constant flow of nitrogen/air. […] This dry powder (11-12 g, H2O, 6.74%) was discharged continuously from the drying chamber and was collected in a bottle.

Molecule	Rate of dissolution in H2O at 25° C. ([1]; H2O, 25° C.)	Rate of dissolution in H2O at 25° C. ([1]; grade in words)	sweetness linger [2]	Sweetness Linger rating defined for controls [2]	sucrose equivalent [3]	sweetness linger [4]	solubility in water at room temperature [5]
rebaudioside A [Form 3]	> 30 %/5 minutes	High	–	–	–	–	–
rebaudioside A [Form 2]	(<30%/5 %/5 minutes	Intermediate	–	–	–	–	–
rebaudioside A [Form 1]	(<0.2%/60 %/60 minutes	Very low	–	–	–	–	–
rebaudioside A	–	–	5	5	8 g sucrose	5	–
rebaudioside A [Form 4]	> 35 %/5 minutes	High	–	–	–	–	> 35.0%
OC[C@H]1O[C@@](CO)(O[C@H]2O[C@H](CO)[C@@H](O)[C@H](O)[C@H]2O)[C@@H](O)[C@@H]1O [sucrose]	–	–	0	0	–	0	–
